Data reported in paper PMC12700550, “DLL4^+ neutrophils promote Notch1-mediated endothelial PANoptosis to exacerbate acute lung injury in sepsis” (The Journal of Clinical Investigation, 2025).
“And” between values parts separate entries of the source, which are not always exact repeats. Identical values can stand only once.

How the values were obtained:
[1] = tested on: C57BL/6 mice, CLP sepsis; conditions: mouse, in vivo, 10 mg/kg
Experimental: (§1) Sepsis was induced in mice by cecal ligation and puncture (CLP) as described previously ([45], [46]). Mice were anesthetized with isoflurane to a surgical plane and placed in a supine position. CLP was performed through a midline laparotomy. The abdomen was shaved and disinfected. Through a 2 cm midline incision, the cecum was exposed and then ligated with a 4-0 silk suture 1 cm proximal from the distal cecal extremity. For 20-hour CLP experiments, the cecum was punctured twice with a 22-gauge needle. A small amount of cecal content was extruded through both holes, and the ligated cecum was returned to the peritoneal cavity. The wound was closed in layers. For 10-day sepsis survival studies, the cecum was punctured once with a 22-gauge needle. A small amount of cecal content was extruded. Mice were allocated to the vehicle and adoptive transfer of DLL4^+ neutrophils or DLL4^– neutrophils groups. Adoptive transfer mice received a retro-orbital injection of 1 × 10^6 cells per mouse DLL4^+ neutrophils or DLL4^– neutrophils in […] phosphate-buffered saline (PBS) immediately after abdominal closure in both the 20-hour experiments and the survival study. Vehicle groups received an equivalent volume of PBS, while treatment groups received NDI 10 mg/kg in 100 mL PBS via retro-orbital injection after CLP. […]

[2] = tested on: KC; test: Lung keratinocyte chemoattractant (KC) mRNA, CLP mice; assay type: in vivo, mouse; conditions: 20 h; for lung KC mRNA (Figure 6H): 10 mg/kg NDI, vs sham, individual mice
Experimental: as §1, with “CLP. This dose was chosen primarily on the basis of our laboratory’s prior experience, we have consistently used this dose in mouse CLP models with reproducible efficacy and without observable toxicity ([39], [44]). Sham-operated animals underwent a laparotomy without CLP. After closure, the mice received a subcutaneous injection of 0.5 mL of normal saline to overcome surgery-induced dehydration. For 20-hour experiments, animals were not injected with antibiotics; however, for survival studies, animals were given 0.5 mg per kg body weight imipenem (lot 4D21K05, WG Critical Care LLC) subcutaneously in 0.5 mL saline once at the end of CLP. All mice were subcutaneously injected with a single dose of 0.1 mg/kg buprenorphine after CLP.” for “CLP.”

[3] = tested on: ZBP1; test: ZBP1 in pulmonary endothelial cells (CD31) of CLP mice, confocal immunofluorescence; assay type: in vivo, mouse; conditions: sepsis, 10 mg/kg NDI, 20 h
Experimental: as §1, with “study.” for “study. Vehicle groups received an equivalent volume of PBS, while treatment groups received NDI 10 mg/kg in 100 mL PBS via retro-orbital injection after CLP.”
For immunohistochemistry staining, paraffin-embedded lung tissue sections were deparaffinized and dewaxed in xylene and a series of ethanol. […] The images were analyzed with ImageJ Fiji (NIH).

[4] = tested on: C57BL/6 mice, CLP sepsis; test: Lung water content, CLP mice; assay type: in vivo, mouse; conditions: 20 h; for lung water content (wet weight – dry weight)/wet weight (Figure 6K): 10 mg/kg NDI, individual mice
Experimental: Sepsis was induced in mice by cecal ligation and puncture (CLP) as described previously ([45], [46]). Mice were anesthetized with isoflurane to a surgical plane and placed in a supine position. CLP was performed through a midline laparotomy. The abdomen was shaved and disinfected. Through a 2 cm midline incision, the cecum was exposed and then ligated with a 4-0 silk suture 1 cm proximal from the distal cecal extremity. […] A small amount of cecal content was extruded through both holes, and the ligated cecum was returned to the peritoneal cavity. The wound was closed in layers. […] A small amount of cecal content was extruded. […] Vehicle groups received an equivalent volume of PBS, while treatment groups received NDI 10 mg/kg in […] PBS via retro-orbital injection after CLP. This dose was chosen primarily on the basis of our laboratory’s prior experience, we have consistently used this dose in mouse CLP models with reproducible efficacy and without observable toxicity ([39], [44]). Sham-operated animals underwent a laparotomy without CLP. After closure, the mice received a subcutaneous injection of 0.5 mL of normal saline to overcome surgery-induced dehydration. […] All mice were subcutaneously injected with a single dose of 0.1 mg/kg buprenorphine after CLP. Lung vascular leakage was quantified using the Evans blue dye–labeled (EBD-labeled) albumin extravasation assay ([48]). […] Sigma-Aldrich) via retro-orbital injection. At 1 hour after EBD administration (4.5 hours after the end of resuscitation), the lungs were perfused with heparinized (1 U/mL) normal saline via right ventricle injection to remove intravascular dye. The whole lung was dehydrated for 48 hours at 60°C, immersed in formamide (1 mL/g wet weight; Sigma-Aldrich) at 37°C for 48 hours, and centrifuged at 5,000g for 30 minutes. The amount of extracted EBD in the supernatant was quantified by spectrophotometry. The concentration of extravasated EBD-albumin in lung homogenates was expressed as nanograms EBD per milligram of dry lung tissue. Lung water content was calculated as (wet weight – dry weight)/wet weight %.

[5] = DLL4^+ neutrophil-injected CLP mice, 10 mg/kg

In the case of ECAGSPCHNGGTCEDGI [NDI], the “adverse effects” value [1] is reported as “lack of observed adverse effects in treated animals”, the “effect on lung KC mRNA” value [2, 5] is reported as “significantly decreased the mRNA expression of TNF-α, IL-6, and KC in lung tissues” and the “lung KC mRNA (Figure 6H)” value ([2]; DLL4^+ neutrophils + CLP) is reported as 5.903 fold change and 0.6661 fold change and 4.862 fold change and 4.727 fold change and 4.686 fold change and 3.906 fold change and 2.6276 fold change and 0.3013 fold change and 7.635 fold change and 2.927 fold change and 2.999 fold change and 5.493 fold change and 8.856 fold change and 7.751 fold change and 5.829 fold change and 6.917 fold change. The “lung KC mRNA (Figure 6H)” value ([2]; DLL4^– neutrophils + CLP) was 5.187 fold change and 6.094 fold change and 6.9598 fold change and 7.18 fold change and 9.417 fold change and 3.542 fold change and 4.905 fold change and 5.1155 fold change and 3.48 fold change and 3.364 fold change, the “effect on ZBP1 in pulmonary endothelial cells, immunostaining” value [3] was “reduced ZBP1 expression in pulmonary endothelial cells in sepsis” and the “effect on lung water content” value [4, 5] was “significantly attenuated these effects, reducing both lung water content and Evans blue dye content”. The “lung water content (wet weight – dry weight)/wet weight (Figure 6K)” value ([4]; DLL4^+ neutrophils + CLP) was 71.922% and 71.5282% and 71.1472% and 70.6857% and 70.3749% and 72.6514% and 72.546% and 71.2677% and 69.0684% and 72.1189% and 71.6599% and 71.2762% and the “lung water content (wet weight – dry weight)/wet weight (Figure 6K)” value ([4]; DLL4^– neutrophils + CLP) was 69.6732% and 70.471% and 69.6655% and 68.9338% and 68.9855% and 70.575% and 70.9924% and 68.7155% and 69.153%.
